Experimental findings from patent publication US20090047243A1, “COMBINATIONS FOR THE TREATMENT OF B-CELL PROLIFERATIVE DISORDERS” (priority 2007, published 2009) are described below.

Assay [1] deals with human multiple myeloma cells (MM.1S). Description: Anti-proliferation assay (ATPLite, 72 h). It counts as cell-based. On the set-up: key to synergy score / synergy (score), PDEi × HE-NECA: S = lnfX·lnfY·ΣIdata(Idata−ILoewe), volume over Loewe additivity. The method, then:
(§1) ANBL6 and INA-6 culture media was also supplemented with 10 ng/ml IL-6. […] MM.1S, MM.1R, OCI-ly10, Karpas 422, and SU-DHL6 cells were provided by the Dana Farber Cancer Institute. H929, RPMI-8226, GA-10, and Farage cells were from ATCC (Cat #'s CCL-155, CRL-9068, CRL-2392 and CRL-2630 respectively). MOLP-8, EJM, KSM-12-PE, and OPM2 were from DSMZ. The ANBL6 and INA-6 cell lines were provided by the M. D. Anderson Cancer Research Center. Compounds were prepared in DMSO at 1000× the highest desired concentration. Master plates were generated consisting of serially diluted compounds in 2- or 3-fold dilutions in 384-well format. For single agent dose response curves, the master plates consisted of 9 individual compounds at 12 concentrations in 2- or 3-fold dilutions. For combination matrices, master plates consisted of individual compounds at 6 or 9 concentrations at 2- or 3-fold dilutions. […] To obtain combination data, two master plates were diluted into the assay plates. […] Thirty microliters of ATPLite (Perkin Elmer) at room temperature was then added to each well. […] Measurements were taken at the top of the well using a luminescence aperture and a read time of 0.1 seconds per well. The percent inhibition (% I) for each well was calculated using the following formula: % I=[(avg. untreated wells-treated well)/(avg. untreated wells)]×100. […] Negative inhibition values result from local variations in treated wells as compared to untreated wells. […] The uncertainty of each fitted parameter was estimated from the range over which the change in reduced chi-squared was less than one, or less than minimum reduced chi-squared if that minimum exceeded one, to allow for underestimated σI errors. Single agent curve data were used to define a dilution series for each compound to be used for combination screening in a 6×6 matrix format. […] The Loewe additivity model was used to quantify combination effects. […] A “Synergy Score” was also used, where the Synergy Score S=log fX log fY ΣIdata(Idata-ILoewe), summed over all non-single-agent concentration pairs, and where log fX,Y is the natural logarithm of the dilution factors used for each single agent. This effectively calculates a volume between the measured and Loewe additive response surfaces, weighted towards high inhibition and corrected for varying dilution factors. An uncertainty σS was calculated for each synergy score, based on the measured errors for the Idata values and standard error propagation.
For orientation: ATP-based viability assays read luminescence as a measure of living cells.

The test system of assay [2] is H929 multiple myeloma cell line. Description: Anti-proliferation assay (ATPLite, 72 h). It is filed as cell-based, human. The arrangement: key: S = lnfX·lnfY·ΣIdata(Idata−ILoewe), volume over Loewe additivity. The conditions noted are these: H929. The method, then:
as §1

[3] abbreviates: PDE inhibitor crossed with (S) ENBA, MM.1S.
The mark [4] stands for this setting: PDE inhibitor crossed with Chloro-IB-MECA, MM.1S.
Setting [5] is: PDE inhibitor crossed with HE-NECA, MM.1S.
[6] abbreviates: PDE inhibitor crossed with (S) ENBA.
[7] abbreviates: PDE inhibitor crossed with Chloro-IB-MECA.
[8] abbreviates: PDE inhibitor crossed with HE-NECA.
Where [9] appears, read: MM.1S, compared among four adenosine receptor antagonists.

Where only a bound is given, the exact number is not on record here.

Take `CCCn1c(=O)c2[nH]c(C3CCCC3)nc2n(CCC)c1=O` [DPCPX, 8-cyclopentyl-1,3-dipropylxanthine]: the inhibition at 0.174 µM in assay [1] (Homo sapiens, MM1.S, after addition of 174 nM DPCPX, CI-IB-MECA 0 μM, Trequinsin conc. (μM), read-out: Percent inhibition of ATP in MM.1S cells) was -7.5%.

Regarding `C[C@@H]1C[C@H]2[C@@H]3CCC4=CC(=O)C=C[C@]4(C)[C@@]3(F)[C@@H](O)C[C@]2(C)[C@@]1(O)C(=O)CO` [dexamethasone], the IC50 in assay [1] (Homo sapiens, MM1.S, 72 h, MM.1S, 72 h, +IL-6 (10 ng/ml)) is 61.7 nM; in assay [1] (Homo sapiens, MM1.S, 72 h, MM.1S, no IL-6), 179 nM. Besides, in assay [1] (MM.1S, 10 ng/ml IL-6 vs no IL-6), the “change in IC50 when cultured in the presence of IL-6” value is 2.9 fold.

Take `COc1cc2c(cc1OC)-c1cc(=Nc3c(C)cc(C)cc3C)n(C)c(=O)n1CC2.NCCNC(=O)Cc1ccc(NC(=O)Cc2ccc(Nc3ncnc4c3ncn4[C@@H]3O[C@H](CO)[C@@H](O)[C@H]3O)cc2)cc1` [ADAC + Trequinsin]: the “percent inhibition of ATP in MM.1S cells” value amounted to 94% in assay [1] (10 ng/mL IL-6, ADAC 1.17 μM, Trequinsin conc. (μM)); 93% in assay [1] (10 ng/mL IL-6, ADAC 3.51 μM, Trequinsin conc. (μM)); 93% in assay [1] (10 ng/mL IL-6, ADAC 10.5 μM, Trequinsin conc. (μM)); 93% in assay [1] (10 ng/mL IL-6, ADAC 31.6 μM, Trequinsin conc. (μM)); 95% in assay [1] (10 ng/mL IL-6, ADAC […], Trequinsin conc. (μM)).

Consider `CNC(=O)[C@H]1O[C@@H](n2cnc3c(NCc4cccc(I)c4)nc(Cl)nc32)[C@H](O)[C@@H]1O.COc1cc2c(cc1OC)-c1cc(=Nc3c(C)cc(C)cc3C)n(C)c(=O)n1CC2` [Cl-IB-MECA + Trequinsin], for which the “percent inhibition of ATP in MM.1S cells” value in assay [1] (after addition of 170 nM MRS 1523, Cl-IB-MECA 2.96 μM, Trequinsin conc. (μM)) was 93%.

For `CCCc1nn(C)c2c(=O)[nH]c(-c3cc(S(=O)(=O)N4CCN(C)CC4)ccc3OCC)nc12` [Sildenafil], the synergy score in assay [1] (setting [3]) stood at 0; in assay [1] (PDE inhibitor crossed with ADAC, MM.1S), 0; in assay [1] (setting [4]) it was 0; in assay [1] (setting [5]), 0; in assay [2] (setting [6]), 0.03; in assay [2] (PDE inhibitor crossed with ADAC), 0.14. Further, the synergy score came out at 0.03 in assay [2] (setting [7]) and 0 in assay [2] (setting [8]).

On to `CNC(=O)[C@H]1O[C@@H](n2cnc3c(NCc4cccc(I)c4)nc(Cl)nc32)[C@H](O)[C@@H]1O.COc1cc2c(cc1OC)-c1cc(=Nc3c(C)cc(C)cc3C)n(C)c(=O)n1CC2` [CI-IB-MECA + Trequinsin], for which the “percent inhibition of ATP in MM.1S cells” value is 94% in assay [1] (after addition of 174 nM DPCPX, CI-IB-MECA 2.96 μM, Trequinsin conc. (μM)) and 93% in assay [1] (no adenosine receptor antagonist added, CI-IB-MECA 1.48 μM, Trequinsin conc. (μM)).

For `CCCn1c(=O)c2[nH]c(-c3ccc(OCC(=O)Nc4ccc(C#N)cc4)cc3)nc2n(CCC)c1=O` [MRS 1574], the inhibition at 0.175 µM in assay [1] (Homo sapiens, MM1.S, after addition of 175 nM MRS 1754, Cl-IB-MECA 0 μM, Trequinsin conc. (μM), read-out: Percent inhibition of ATP in MM.1S cells) is -13%.

On to `CCCOc1ccccc1-c1nc2nn[nH]c2c(=O)[nH]1` [Zaprinast], for which the synergy score in assay [1] (setting [3]) turned out to be 0.16; in assay [1] (setting [4]) it was 0.05; in assay [1] (setting [5]) it was 0.025; in assay [2] (setting [6]) it was 0.05; in assay [2] (setting [7]), 0.03; in assay [2] (setting [8]) it was 0.13.

Regarding `CCCCC#Cc1nc(N)c2ncn([C@@H]3O[C@H](C(=O)NCC)[C@@H](O)[C@H]3O)c2n1.COc1cc2c(cc1OC)-c1cc(=Nc3c(C)cc(C)cc3C)n(C)c(=O)n1CC2` [HE-NECA + Trequinsin], the “percent inhibition of ATP in MM.1S cells” value in assay [1] (10 ng/mL IL-6, Trequinsin 3.39 μM, HE-NECA conc. (nM)) is given as 94%; in assay [1] (10 ng/mL IL-6, Trequinsin 30.5 μM, HE-NECA conc. (nM)) it was 100%; in assay [1] (no IL-6, Trequinsin 30.5 (unit not given), HE-NECA conc. (nM)), 98%.

In the case of `Nc1nc2c(cnn2CCc2ccccc2)c2nc(-c3ccco3)nn12` [SCH 58261], the “blocking of chloro-IB-MECA antiproliferative activity” value in assay [1] (MM.1S, 72 h, antagonist SCH 58261 at 78 nM) is on record as over 50%. For the same compound, the “antagonist effect on (S)-ENBA inhibition of cell growth” value in assay [1] (MM.1S, 72 h, SCH 58261 78 nM, MRS 1523 183 nM, DPCPX 178 nM, MRS 1574 175 nM) is “most active of the antagonists”. Further, the “blocking of chloro-IB-MECA antiproliferative activity” value in assay [1] (MM.1S, antagonist concentration increased 2-fold) was over 70%. Moreover, in assay [1] (setting [9]), the “antagonist effect on chloro-IB-MECA crossed with trequinsin” value was “most active compound” and the “antagonist effect on synergy of (S)-ENBA crossed with trequinsin” value was “most active compound”.

For `CCCCC#Cc1nc(N)c2ncn([C@@H]3O[C@H](C(=O)NCC)[C@@H](O)[C@H]3O)c2n1.COc1ccc(Cc2nccc3cc(OC)c(OC)cc23)cc1OC` [HE-NECA + Papaverine], the “percent inhibition of ATP in MM.1S cells” value in assay [1] (10 ng/mL IL-6, Papaverine 20.7 μM, HE-NECA conc. (μM)) amounted to 97%; in assay [1] (no IL-6, Papaverine 20.7 μM, HE-NECA conc. (nM)), 95%.

For orientation: inhibition means the drop in the measured response relative to a control, in per cent. Usually IC50 stands for the concentration needed to halve the response being measured.
